Data as given in US20140243335A1, “SUBSTITUTED HYDOXAMIC ACIDS AND USES THEREOF” (Millennium Pharmaceuticals, Inc., priority 2010, published 2014).

Molecular target: T1, purified human HDAC6 (Homo sapiens, UniProt Q9UBN7)
T1 construct: purchased BPS Bioscience 5006
T1 sequence (Q9UBN7 1-1215): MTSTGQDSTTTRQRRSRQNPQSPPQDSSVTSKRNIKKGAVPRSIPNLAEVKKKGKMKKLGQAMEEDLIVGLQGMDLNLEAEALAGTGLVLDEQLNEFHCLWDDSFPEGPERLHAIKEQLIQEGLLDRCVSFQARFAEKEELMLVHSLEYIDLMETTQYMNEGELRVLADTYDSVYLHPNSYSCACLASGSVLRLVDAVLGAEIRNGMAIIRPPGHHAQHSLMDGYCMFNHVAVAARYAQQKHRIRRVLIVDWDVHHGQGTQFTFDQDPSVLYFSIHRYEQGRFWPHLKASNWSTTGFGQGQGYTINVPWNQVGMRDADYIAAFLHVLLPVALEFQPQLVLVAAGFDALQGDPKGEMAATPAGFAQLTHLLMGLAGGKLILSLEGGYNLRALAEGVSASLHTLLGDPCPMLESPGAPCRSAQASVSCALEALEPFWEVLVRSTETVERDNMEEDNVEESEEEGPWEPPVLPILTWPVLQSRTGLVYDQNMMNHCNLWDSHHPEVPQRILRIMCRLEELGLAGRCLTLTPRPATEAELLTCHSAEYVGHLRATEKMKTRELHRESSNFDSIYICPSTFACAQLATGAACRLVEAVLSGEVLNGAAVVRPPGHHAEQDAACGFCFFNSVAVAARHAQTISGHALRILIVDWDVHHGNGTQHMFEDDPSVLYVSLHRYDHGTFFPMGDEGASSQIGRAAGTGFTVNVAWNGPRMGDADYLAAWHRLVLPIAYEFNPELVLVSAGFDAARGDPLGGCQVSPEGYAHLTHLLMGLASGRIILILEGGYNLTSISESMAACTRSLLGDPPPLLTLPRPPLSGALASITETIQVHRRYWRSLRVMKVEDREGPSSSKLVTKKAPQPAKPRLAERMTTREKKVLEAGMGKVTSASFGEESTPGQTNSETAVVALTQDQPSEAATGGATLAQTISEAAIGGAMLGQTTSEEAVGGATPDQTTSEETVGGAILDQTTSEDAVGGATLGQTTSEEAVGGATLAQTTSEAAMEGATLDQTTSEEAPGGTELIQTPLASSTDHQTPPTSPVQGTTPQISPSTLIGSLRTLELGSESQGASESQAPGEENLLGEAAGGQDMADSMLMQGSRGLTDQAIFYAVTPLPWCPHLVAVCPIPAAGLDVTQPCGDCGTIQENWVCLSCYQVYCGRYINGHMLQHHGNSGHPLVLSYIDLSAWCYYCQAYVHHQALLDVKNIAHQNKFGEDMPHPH
Assay: HDAC6 Enzyme Assay
Assay type: biochemical
Settings: HDAC6 inhibition at a compound concentration of 0.412 μM; read-out: Percent Inhibition at 0.412 μM

inhibition at 0.412 µM: 92%
SMILES: O=C(NO)c1ccc2c(c1)CCC(Oc1ccccc1)C2 (stereo not shown) [Compound I-229, N-hydroxy-6-phenoxy-5,6,7,8-tetrahydronaphthalene-2-carboxamide]
